The record followed here is patent US20250195540A1, “Use of dehydroepiandrosterone (DHEA) in preparation of drug for preventing and treating ophthalmic myopia, dosage forms of DHEA, and preparation methods of dosage forms” (Zhongshan Ophthalmic Center of Sun Yat-sen University, priority 2022, published 2025).

For the assay, the system named is form deprivation myopia (FDM) model. The assay can be described thus: Efficacy research in form deprivation myopia (FDM) model. It counts as in vivo, colored guinea pigs. To be noted: applied locally to eyes. From the text: (1) A total of 40 healthy three-week-old colored guinea pigs were randomly selected and randomly divided into 8 groups with 5 guinea pigs in each group. The 8 guinea pig groups includes a first group: a normal control group, a second group: a myopia model-alone group, a third group: a myopia model+0.01% DHEA-based eye drop group, a fourth group: a myopia model+0.1% DHEA-based eye drop group, a fifth group: myopia model+1% DHEA-based eye drop group, a sixth group: a myopia model+2% DHEA-based eye drop group, a seventh group: a myopia model+DHEA-based eye ointment group, and an eighth group: a myopia model+DHEA-based gel group. There were no statistically-significant differences in the baseline diopter and AL of the right eye among the groups.
(2) Establishment of a form deprivation myopia (FDM) model: the right eye was covered and the left eye was normally opened. […]
A) Diopter measurement: the optometry was conducted with a streak retinoscope and lenses of different diopters, and an average of diopters in horizontal and vertical meridians was taken. The optometry was conducted 3 times, and an average was taken and recorded as a result.
B) AL measurement: ALs of both eyes were measured by an A-mode ultrasound instrument. Results of 6 measurements under waveform standards were selected, and an average was taken and recorded as a result, which was accurate to 0.01 mm.

Turning to `C[C@]12CC[C@H](O)CC1=CC[C@@H]1[C@@H]2CC[C@]2(C)C(=O)CC[C@@H]12` [DHEA, 3-β-hydroxyandrost-5-en-17-one], the “Growth of axial length (AL) in animal models” value is “reduce the growth of axial length (AL)”.
